Measured values from patent US20090176811A1, “Substituted 5,6,7,8-Tetrahydro-pyrido[4,3-d]pyrimidine-2-yl Compounds and 5,6,7,8-Tetrahydro-quinazoline-2-yl Compounds” (GRUENENTHAL GmbH, priority 2004, published 2009).

Each compound was assayed on batrachotoxin (BTX) binding site of the sodium channel (assay: Affinity for the batrachotoxin (BTX) binding site of the sodium channel ([3H]-Batrachotoxinin A20 benzoate, rat cerebrocortex synaptosomes)). Settings: [3H]-Batrachotoxinin A20 benzoate 10 nM, test concentration not given.

Compound | BTX inhibition
CCOc1ccccc1C(=O)Nc1ncc2c(n1)CCN(C(=O)c1sccc1Cl)C2 [Example 145, N-[6-(3-chloro-thiophene-2-carbonyl)-5,6,7,8-tetrahydro-pyrido[4,3-d]pyrimidin-2-yl]-2-ethoxy-benzamide] | 46
O=C(Nc1ncc2c(n1)CCN(C(=O)C1CCc3ccccc3C1)C2)c1cccc(F)c1 (stereo not drawn) [Example 141, 3-fluoro-N-[6-(1,2,3,4-tetrahydro-naphthalene-2-carbonyl)-5,6,7,8-tetrahydro-pyrido[4,3-d]pyrimidin-2-yl]-benzamide] | 63
O=C(Nc1ncc2c(n1)CCN(C(=O)c1ccc3ccccc3c1)C2)c1ccc(Cl)cc1 [Example 69] | 64
Cc1ccc([N+](=O)[O-])cc1S(=O)(=O)N1CCc2nc(NC(=O)c3ccccc3F)ncc2C1 [Example 150, 2-fluoro-N-[6-(2-methyl-5-nitro-benzenesulfonyl)-5,6,7,8-tetrahydro-pyrido[4,3-d]pyrimidin-2-yl]-benzamide] | 49
Cc1ccc(C(=O)Nc2ncc3c(n2)CCN(C(=O)c2ccc(SC(F)(F)F)cc2)C3)cc1 [Example 148, 4-methyl-N-[6-(4-trifluoromethylsulfanyl-benzoyl)-5,6,7,8-tetrahydro-pyrido[4,3-d]pyrimidin-2-yl]-benzamide] | 85
COc1ccccc1C(=O)Nc1ncc2c(n1)CCN(S(=O)(=O)c1c(C)cc(OC)c(C)c1C)C2 [Example 158, 2-methoxy-N-[6-(4-methoxy-2,3,6-trimethyl-benzenesulfonyl)-5,6,7,8-tetrahydro-pyrido[4,3-d]pyrimidin-2-yl]-benzamide] | 74
O=C(Nc1ncc2c(n1)CCN(C(=O)c1ccc(-c3cccs3)cc1)C2)c1cc(Cl)cc(Cl)c1 [Example 144, 3,5-dichloro-N-[6-(4-thiophen-2-yl-benzoyl)-5,6,7,8-tetrahydro-pyrido[4,3-d]pyrimidin-2-yl]-benzamide] | 81
CCc1ccc(C(=O)Nc2ncc3c(n2)CCN(S(=O)(=O)c2ccc4c(c2)CN(C(=O)C(F)(F)F)CC4)C3)cc1 [Example 157, 4-ethyl-N-{6-[2-(2,2,2-trifluoro-acetyl)-1,2,3,4-tetrahydro-isoquinoline-7-sulfonyl]-5,6,7,8-tetrahydro-pyrido[4,3-d]pyrimidin-2-yl}-benzamide] | 63
Cc1ccc(C)c(CC(=O)NC2CCc3nc(NC(=O)c4ccc(F)cc4)ncc3C2)c1 (stereo not drawn) [Example 163, N-{6-[2-(2,5-dimethyl-phenyl)-acetylamino]-5,6,7,8-tetrahydro-quinazolin-2-yl}-4-fluoro-benzamide] | 28
O=C(Nc1ncc2c(n1)CCN(C(=O)Cc1ccc(Cl)cc1)C2)c1ccc(Cl)c(Cl)c1 [Example 126, 3,4-dichloro-N-{6-[2-(4-chloro-phenyl)-acetyl]-5,6,7,8-tetrahydro-pyrido[4,3-d]pyrimidin-2-yl}-benzamide] | 70
O=C(Nc1ncc2c(n1)CCN(C(=O)CCCCc1ccccc1)C2)c1ccccc1 [Example 190, N-[6-(5-phenyl-pentanoyl)-5,6,7,8-tetrahydro-pyrido[4,3-d]pyrimidin-2-yl]-benzamide] | 56
O=C(Nc1ncc2c(n1)CCN(C(=O)c1cccc(F)c1)C2)c1cccc2ccccc12 [Example 183, naphthalene-1-carboxylic acid [6-(3-fluoro-benzoyl)-5,6,7,8-tetrahydro-pyrido[4,3-d]pyrimidin-2-yl]-amide] | 31
